Laboratory results from patent US20240270724A1, “GALECTIN-3 INHIBITING C-GLYCOSIDES” (GLYCOMIMETICS, INC., priority 2021, published 2024).

How the values were obtained:
galectin-3 = molecular target: T1, galectin-3 (Homo sapiens, UniProt P17931); assay: Galectin-3 activity ELISA assay: inhibition of galectin-3 binding to immobilized Galβ1-3GlcNAc polymer; settings: inhibition of galectin-3 binding to Galβ1-3GlcNAc polymer, average (± standard deviation) where assayed more than once
T1 construct: purchased IBL IBATGP0414
T1 sequence (P17931 whole entry): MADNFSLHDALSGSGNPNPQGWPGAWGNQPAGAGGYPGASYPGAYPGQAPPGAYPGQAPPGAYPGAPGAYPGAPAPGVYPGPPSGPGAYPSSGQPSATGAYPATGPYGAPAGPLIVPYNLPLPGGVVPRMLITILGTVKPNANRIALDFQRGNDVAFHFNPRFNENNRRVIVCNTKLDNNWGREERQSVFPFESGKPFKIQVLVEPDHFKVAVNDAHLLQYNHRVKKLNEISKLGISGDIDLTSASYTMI
Text: An inhibition assay may be used to screen for antagonists of galectin-3. For example, an assay may be performed to characterize the capability of a compound described herein to inhibit interaction of galectin-3 with a Galβ1-3GlcNAc carbohydrate structure. The inhibition assay may be a competitive binding assay, which allows the determination of IC50 values. By way of example, a Galβ1-3GlcNAc polymer may be immobilized onto a matrix; a composition may be added to reduce nonspecific binding; the immobilized Galβ1-3GlcNAc polymer may be contacted with the candidate compound in the presence of galectin-3 group under conditions and for a time sufficient to permit galectin-3 to bind to the immobilized Galβ1-3GlcNAc polymer; the immobilized Galβ1-3GlcNAc polymer may be washed; and the amount of galectin-3 bound to the immobilized Galβ1-3GlcNAc polymer may be detected. Variations of such steps can be readily and routinely accomplished by a person of ordinary skill in the art.
Galectin-3 antagonists were evaluated for their ability to inhibit binding of galectin-3 to a Galβ1-3GlcNAc carbohydrate structure. The detailed protocol was as follows. A 1 μg/mL suspension of a Galβ1-3GlcNAcβ1-3Galβ1-4GlcNAcβ-PAA-biotin polymer (Glycotech, catalog number 01-096) was prepared. A 100 μL aliquot of the polymer was added to the wells of a 96-well streptavidin-coated plate (R&D Systems, catalog number CP004). A 100 μL aliquot of 1× Tris Buffered Saline (TBS, Sigma, catalog number T5912-10X) was added to control wells. The polymer was allowed to bind to the streptavidin-coated wells for 1.5 hours at room temperature. The contents of the wells were discarded, and 200 μL of 1×TBS containing 1% bovine serum albumin (BSA) was added to each well as a blocking reagent and the plate was kept at room temperature for 30 minutes. The wells were washed three times with 1×TBS containing 0.1% BSA. A serial dilution of test compounds was prepared in a separate V-bottom plate (Corning, catalog number 3897). A 75 μL aliquot of the highest concentration of the compound to be tested was added to the first well in a column of the V-bottom plate, then 15 μL were serially transferred into 60 μL 1×TBS through the remaining wells in the column to generate a 1 to 5 serial dilution. A 60 μL aliquot of 2 μg/mL galectin-3 (IBL, catalog number IBATGP0414) was added to each well in the V-bottom plate. A 100 μL aliquot of the galectin-3 test compound mixture was transferred from the V-bottom plate into the assay plate containing the Galβ1-3GlcNAc polymer. Four sets of control wells in the assay plate were prepared in duplicate containing 1) both Galβ1-3GlcNAc polymer and galectin-3, 2) neither the polymer nor galectin-3, 3) galectin-3 only, no polymer, or 4) polymer only, no galectin-3. The plate was gently rocked for 1.5 hours at room temperature. The wells were washed four times with TBS/0.1% BSA. A 100 μL aliquot of anti-galectin-3 antibody conjugated to horse radish peroxidase (R&D Systems, from DGAL30 kit) was added to each well, and the plate was kept at room temperature for 1 hour. The wells were washed four times with TBS/0.1% BSA. A 100 μL aliquot of TMB substrate solution was added to each well. The TMB substrate solution was prepared by making a 1:1 mixture of TMB Peroxidase Substrate (KPL, catalog number 5120-0048) and Peroxidase Substrate Solution B (KPL, catalog number 5120-0037). The plate was kept at room temperature for 10 to 20 minutes. The color development was stopped by adding 100 uL 10% phosphoric acid (RICCA Chemical Co., catalog number 5850-16). The absorbance at 450 nm (A450) was measured using a FlexStation 3 plate reader (Molecular Devices). Plots of A450 versus test compound concentration and IC50 determinations were made using GraphPad Prism 6. The number of assays run (n) for each compound is recorded in the following table.

[1] = molecular target: T2, carbohydrate recognition domain of human galectin-3 (Galectin-3-CRD) (Homo sapiens, UniProt P17931); assay: Galectin-3 activity microscale thermophoresis assay; format: binding; settings: label-free MST, 20 nM galectin-3-CRD; average of all assays (± standard deviation), each assay in triplicate
T2 construct: The carbohydrate recognition domain of human galectin-3 (Servesto Galectin-3-CRD) was diluted; purchased Servesto
T2 sequence (P17931 118-248 limits assumed): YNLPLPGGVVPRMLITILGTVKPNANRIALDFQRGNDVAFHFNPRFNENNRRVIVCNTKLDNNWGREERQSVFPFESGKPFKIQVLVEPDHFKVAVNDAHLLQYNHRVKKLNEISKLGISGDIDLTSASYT
Procedure: The carbohydrate recognition domain of human galectin-3 (Servesto Galectin-3-CRD) was diluted with PBS+0.1% F127 to 40 nM. Separately, a 40 uM stock of Compound 45 in DMSO was diluted down to 4 uM in PBS+0.1% F127 and serially diluted in sixteen steps using a dilution factor of 1 to 2 in 10% DMSO+PBS+0.1% F127. To each sample in the serial dilution of Compound 45, 10 ul of 40 nM Galectin-3-CRD was added, yielding final concentrations of 20 nM galectin-3-CRD and 5% DMSO+PBS+0.1% F127. NT.LabelFree Zero background Standard Treated Capillaries were filled with the prepared solutions then loaded into the Monolith NT Label-Free MST instrument. The reaction was measured with 100% excitation power of LED and medium (40%) MST power. Binding curves and Kd values were generated using MO affinity analysis. Each assay was run in triplicate. Some compounds were subjected to more than one assay run in triplicate.

| IC50 (galectin-3) [nM] | Kd [1] [nM] | Compound |
| --- | --- | --- |
| 448 | 23 | CNC(=O)[C@@H](OCc1ccc(Br)cc1)[C@@H]1OC(CO)[C@H](O)C(n2cc(-c3cc(F)c(F)c(F)c3)nn2)C1OC (stereo partly drawn) [Compound 19] |
| 265 | 36 | COCCCNC(=O)[C@@H](OCc1ccc(Br)cc1)[C@@H]1OC(CO)[C@H](O)C(n2cc(-c3cc(F)c(F)c(F)c3)nn2)C1OC (stereo partly drawn) [Compound 20] |
| 474 | 33 | COCCCNC(=O)[C@@H](OCc1ccc(Br)cc1)[C@@H]1OC(CO)[C@H](O)C(n2cc(-c3cc(F)cc(F)c3)nn2)C1OC (stereo partly drawn) [Compound 21] |
| 1490 | 83 | COCCCN(C)C(=O)[C@@H](OCc1ccc(Br)cc1)[C@@H]1OC(CO)[C@H](O)C(n2cc(-c3cc(F)cc(F)c3)nn2)C1OC (stereo partly drawn) [Compound 22] |
| 271 | 1.7 | COC1C(n2cc(-c3cc(F)c(F)c(F)c3)nn2)[C@@H](O)C(CO)O[C@H]1[C@H](OCc1ccc(Br)cc1)C(=O)NC(C)C (stereo partly drawn) [Compound 23] |
| 173 | 26 | CC(C)OC(=O)[C@@H](OCc1ccc(Br)cc1)[C@@H]1OC(CO)[C@H](O)C(n2cc(-c3cc(F)c(F)c(F)c3)nn2)C1O (stereo partly drawn) [Compound 27] |
| 391 | 21 | COCCCNC(=O)[C@@H](OCc1ccc(Br)cc1)[C@@H]1OC(CO)[C@H](O)C(n2cc(-c3cc(F)cc(F)c3)nn2)C1O (stereo partly drawn) [Compound 35] |
| 204 | 14 | COCCCNC(=O)[C@@H](OCc1ccc(Br)cc1)[C@@H]1OC(CO)[C@H](O)C(n2cc(-c3cc(F)c(F)c(F)c3)nn2)C1O (stereo partly drawn) [Compound 36] |
| 103 | 12 | COC1C(n2cc(-c3cc(F)c(F)c(F)c3)nn2)[C@@H](O)C(CO)O[C@H]1[C@H](OCc1ccc(Br)cc1)C(=O)OC(C)C (stereo partly drawn) [Compound 43] |
| 291 | 12 | CC(C)NC(=O)[C@@H](OCc1ccc(Br)cc1)[C@@H]1OC(CO)[C@H](O)C(n2cc(-c3cc(F)c(F)c(F)c3)nn2)C1O (stereo partly drawn) [Compound 44] |
| 171 | 8.9 | [2H]C([2H])([2H])OC1C(n2cc(-c3cc(F)c(F)c(F)c3)nn2)[C@@H](O)C(CO)O[C@H]1[C@H](OCc1ccc(Br)cc1)C(=O)NC(C)C (stereo partly drawn) [Compound 45] |
| 116 | 18 | COC1C(n2cc(-c3cc(F)c(F)c(F)c3)nn2)[C@@H](O)C(CO)O[C@H]1[C@H](OCc1ccc(Br)cc1)C(=O)NC1CC1 (stereo partly drawn) [Compound 49] |
| 269 | 32 | CCNC(=O)[C@@H](OCc1ccc(Br)cc1)[C@@H]1OC(CO)[C@H](O)C(n2cc(-c3cc(F)c(F)c(F)c3)nn2)C1OC (stereo partly drawn) [Compound 69] |
| 192 | 20 | COC1C(n2cc(-c3cc(F)c(F)c(F)c3)nn2)[C@@H](O)C(CO)O[C@H]1[C@H](OCc1ccc(Br)cc1)C(=O)NCCO (stereo partly drawn) [Compound 70] |
| 526 | 9 | COC1C(n2cc(-c3cc(F)c(F)c(F)c3)nn2)[C@@H](O)C(CO)O[C@H]1[C@H](OCc1ccc(Br)cc1)C(=O)N[C@@H](C)CF (stereo partly drawn) [Compound 71] |
| 197 | 9 | COC1C(n2cc(-c3cc(F)c(F)c(F)c3)nn2)[C@@H](O)C(CO)O[C@H]1[C@H](OCc1ccc(Br)cc1)C(=O)NC(CF)CF (stereo partly drawn) [Compound 72] |
| 182 | 8 | COC1C(n2cc(-c3cc(F)c(F)c(F)c3)nn2)[C@@H](O)C(CO)O[C@H]1[C@H](OCc1ccc(Br)cc1)C(=O)N[C@@H](C)C(F)(F)F (stereo partly drawn) [Compound 73] |

Continued, compound first:

| Compound | IC50 (galectin-3) [nM] | Kd [1] [nM] |
| --- | --- | --- |
| [2H]C([2H])([2H])OC1C(n2cc(-c3cc(F)c(F)c(F)c3)nn2)[C@@H](O)C(CO)O[C@H]1[C@H](OCc1ccc(Br)cc1)C(=O)NC([2H])(C([2H])([2H])[2H])C([2H])([2H])[2H] (stereo partly drawn) [Compound 46] | 228 | 2.9 |
| [2H]C([2H])([2H])OC1C(n2cc(-c3cc(F)c(F)c(F)c3)nn2)[C@@H](O)C(CO)O[C@H]1[C@H](OCc1ccc(Br)cc1)C(=O)NC1CC1 (stereo partly drawn) [Compound 47] | 408 | 11 |
| [2H]C([2H])([2H])OC1C(n2cc(-c3cc(F)c(F)c(F)c3)nn2)[C@@H](O)C(CO)O[C@H]1[C@H](OCc1ccc(Br)cc1)C(=O)NC(C)(C)C (stereo partly drawn) [Compound 48] | 972 | 46 |
| [2H]C([2H])([2H])OC1C(n2cc(-c3cc(F)c(F)c(F)c3)nn2)[C@@H](O)C(CO)O[C@H]1[C@H](OCc1ccc(Br)cc1)C(=O)NC1(C)CC1 (stereo partly drawn) [Compound 50] | 201 | 10 |
| [2H]C([2H])([2H])OC1C(n2cc(-c3cc(F)c(F)c(F)c3)nn2)[C@@H](O)C(CO)O[C@H]1[C@H](OCc1ccc(Br)cc1)C(=O)NC1(C(F)(F)F)CC1 (stereo partly drawn) [Compound 51] | 702 | 17 |
| [2H]C([2H])([2H])OC1C(n2cc(-c3cc(F)c(F)c(F)c3)nn2)[C@@H](O)C(CO)O[C@H]1[C@H](OCc1ccc(Br)c(F)c1)C(=O)NC(C)C (stereo partly drawn) [Compound 61] | 771 | 10 |
| [2H]C([2H])([2H])OC1C(n2cc(-c3cc(F)c(F)c(F)c3)nn2)[C@@H](O)C(CO)O[C@H]1[C@H](OCc1ccc(Br)cc1)C(=O)NC1CC1(F)F (stereo partly drawn) [Compound 62] | 826 | 11 |
| [2H]C([2H])([2H])OC1C(n2cc(-c3cc(F)c(F)c(F)c3)nn2)[C@@H](O)C(CO)O[C@H]1[C@H](OCc1ccc(Br)cc1)C(=O)NC1CNC1 (stereo partly drawn) [Compound 63] | 51 | 22 |
| [2H]C([2H])([2H])OC1C(n2cc(-c3cc(F)c(F)c(F)c3)nn2)[C@@H](O)C(CO)O[C@H]1[C@H](OCc1ccc(Br)cc1)C(=O)NC1COC1 (stereo partly drawn) [Compound 64] | 236 | 18 |
| [2H]C([2H])([2H])OC1C(n2cc(-c3cc(F)c(F)c(F)c3)nn2)[C@@H](O)C(CO)O[C@H]1[C@H](OCc1ccc(Br)cc1)C(=O)N[C@H]1C[C@H]1F (stereo partly drawn) [Compound 65] | 364 | 13 |
| [2H]C([2H])([2H])OC1C(n2cc(-c3cc(F)c(F)c(F)c3)nn2)[C@@H](O)C(CO)O[C@H]1[C@H](OCc1ccc(Br)cc1)C(=O)NC1CC(F)(F)C1 (stereo partly drawn) [Compound 66] | 143 | 3.6 |
| [2H]C([2H])([2H])OC1C(n2cc(-c3cc(F)c(F)c(F)c3)nn2)[C@@H](O)C(CO)O[C@H]1[C@H](OCc1ccc(Br)cc1)C(=O)NC1CCC1 (stereo partly drawn) [Compound 67] | 153 | 2.2 |
| [2H]C([2H])([2H])OC1C(n2cc(-c3cc(F)c(F)c(F)c3)nn2)[C@@H](O)C(CO)O[C@H]1[C@H](OCc1ccc(Br)cc1)C(=O)N(C)C (stereo partly drawn) [Compound 68] | 709 | 87 |
